Calls of active or inactive are those of the source. The rule behind the calls is not given here.
Legend:
Cryptococcus neoformans [1] = experiment: Anti-cryptococcal activity against Cryptococcus neoformans H99 assessed as inhibition of fungal growth at 8 ug/ml measured after 72 hrs by time-growth curve assay; format: functional; design: scale not given: the % may be the effect or the level left; details: dose 8 µg/ml
Cryptococcus neoformans [2] = experiment: Anti-cryptococcal activity against Cryptococcus neoformans H99 assessed as inhibition of fungal growth at 1 ug/ml measured after 72 hrs by time-growth curve assay; format: functional, organism-based; details: dose 1.0 µg/ml
Cryptococcus neoformans [3] = experiment: Fungicidal activity against Cryptococcus neoformans H99 assessed as fungal growth inhibition incubated upto 72 hrs by time-fungicidal curve assay; format: functional
Cryptococcus neoformans [4] = experiment: Inhibition of biofilm formation in Cryptococcus neoformans H99 at 2 ug/ml incubated for 24 hrs by XTT reduction assay; format: functional
[Candida] auris [5] = microbe, parasite or virus in culture; format: functional, organism-based; details: Candidozyma auris, 0030, 48 h
Description: Antifungal activity against Candida auris 0030 assessed as inhibition of fungal growth incubated for 48 hrs by microdilution method

Cryptococcus neoformans [6] = experiment: microbe, parasite or virus in culture; format: functional, organism-based; details: H99, 72 h
Description: Anti-cryptococcal activity against Cryptococcus neoformans H99 assessed as inhibition of fungal growth incubated for 72 hrs by microdilution method

Candida albicans [7] = experiment: microbe, parasite or virus in culture; format: functional, organism-based; details: SC5314, 48 h
Description: Antifungal activity against Candida albicans SC5314 assessed as inhibition of fungal growth incubated for 48 hrs by microdilution method

Candida albicans [8] = experiment: microbe, parasite or virus in culture; format: functional, organism-based; details: Candida albicans, 904, 48 h
Description: Antifungal activity against Candida albicans 904 assessed as inhibition of fungal growth incubated for 48 hrs by microdilution method

Candida albicans [9] = experiment: microbe, parasite or virus in culture; format: functional, organism-based; details: Candida albicans, 0304103, 48 h
Description: Antifungal activity against Candida albicans 0304103 assessed as inhibition of fungal growth incubated for 48 hrs by microdilution method

Candida tropicalis = experiment: microbe, parasite or virus in culture; format: functional, organism-based; details: Candida tropicalis, 10186, 48 h
Description: Antifungal activity against Candida tropicalis 10186 assessed as inhibition of fungal growth incubated for 48 hrs by microdilution method

Nakaseomyces glabratus [10] = experiment: microbe, parasite or virus in culture; format: functional, organism-based; details: Nakaseomyces glabratus, 9073, 48 h
Description: Antifungal activity against Candida glabrata 9073 assessed as inhibition of fungal growth incubated for 48 hrs by microdilution method

Nakaseomyces glabratus [11] = experiment: microbe, parasite or virus in culture; format: functional, organism-based; details: Nakaseomyces glabratus, 9025, 48 h
Description: Antifungal activity against Candida glabrata 9025 assessed as inhibition of fungal growth incubated for 48 hrs by microdilution method

Pichia kudriavzevii = experiment: microbe, parasite or virus in culture; format: functional, organism-based; details: Pichia kudriavzevii, 10153, 48 h
Description: Antifungal activity against Candida krusei 10153 assessed as inhibition of fungal growth incubated for 48 hrs by microdilution method

[Candida] auris [12] = microbe, parasite or virus in culture; format: functional, organism-based; details: Candidozyma auris, 0029, 48 h
Description: Antifungal activity against Candida auris 0029 assessed as inhibition of fungal growth incubated for 48 hrs by microdilution method

[Candida] auris [13] = Antifungal activity against Candida auris 15448 assessed as inhibition of fungal growth incubated for 48 hrs by microdilution method; format: functional, organism-based; details: Candidozyma auris, 15448, 48 h
Aspergillus fumigatus [14] = experiment: microbe, parasite or virus in culture; format: functional, organism-based; details: Aspergillus fumigatus, 7544, 48 h
Description: Antifungal activity against Aspergillus fumigatus 7544 assessed as inhibition of fungal growth incubated for 48 hrs by microdilution method

Aspergillus fumigatus [15] = experiment: microbe, parasite or virus in culture; format: functional, organism-based; details: 023-2, 48 h
Description: Antifungal activity against Aspergillus fumigatus 023-2 assessed as inhibition of fungal growth incubated for 48 hrs by microdilution method

[16] = Metabolic stability in mouse liver microsomes assessed as half life; format: ADME, Microsome
[17] = Metabolic stability in mouse liver microsomes assessed as clearance; format: ADME, Microsome
[18] = Cytotoxicity against HUVEC cells; details: human
[19] = […] in ICR mouse model of Cryptococcal meningitis infected with Cryptococcus neoformans H99 assessed as median survival time at 15 mg/kg, IG administered daily (reference value: 11 day); format: organism-based; details: in vivo, po, 264 h
Cryptococcus neoformans [20] = experiment: Anti-cryptococcal activity against Cryptococcus neoformans H99 assessed as cell membrane damage at 4 ug/ml incubated for 8 hrs by transmission electron microscopy; format: functional, organism-based; details: dose 4.0 µg/ml
Cryptococcus neoformans [21] = experiment: Anti-cryptococcal activity against Cryptococcus neoformans H99 assessed as cell membrane damage at 0.5 to 4 ug/ml incubated for 8 hrs by transmission electron microscopy; format: functional, organism-based; details: dose 0.5-4 µg/ml, DDE = dose-dependent effect
Cryptococcus neoformans [22] = experiment: Anti-cryptococcal activity against Cryptococcus neoformans H99 assessed as efflux of cell contents at 4 ug/ml incubated for 8 hrs by transmission electron microscopy; format: functional, organism-based; details: dose 4.0 µg/ml
Cryptococcus neoformans [23] = experiment: Inhibition of Cryptococcus neoformans H99 delta5,6-desaturase assessed as change in sterol content at 2 ug/ml incubated for 24 hrs by GC-MS analysis; details: dose 2.0 µg/ml
Cryptococcus neoformans [24] = experiment: Inhibition of Cryptococcus neoformans H99 delta5,6-desaturase assessed as decrease in ergosterol level at 1 ug/ml incubated for 24 hrs by GC-MS analysis; details: dose 1.0 µg/ml
Cryptococcus neoformans [25] = experiment: Inhibition of Cryptococcus neoformans H99 delta5,6-desaturase assessed as increase in ergosta-7,22-dien-3-ol levels at 0.125 to 2 ug/ml incubated for 24 hrs by GC-MS analysis; details: dose 0.125-2 µg/ml, DDE = dose-dependent effect
Cryptococcus neoformans [26] = experiment: Inhibition of Cryptococcus neoformans H99 delta5,6-desaturase assessed as blockade of ergosterol biosynthesis pretreated at 3 ug/ml followed by addition of ERG enzymes incubated for 24 hrs in presence of NADPH by GC-MS analysis; details: dose 3.0 µg/ml
Cryptococcus neoformans [27] = experiment: Inhibition of Cryptococcus neoformans H99 delta5,6-desaturase assessed as blockade of ergosterol biosynthesis at 0.5 ug/ml pretreated with ERG enzymes followed by compound addition incubated for 24 hrs in presence of NADPH by GC-MS analysis; details: dose 0.5 µg/ml
Candida albicans [28] = experiment: Antifungal activity against Candida albicans SC3514 assessed as decrease in ergosterol content at 2 ug/ml incubated for 24 hrs in presence of NADPH by GC-MS analysis; format: functional, organism-based; details: dose 2.0 µg/ml
Candida albicans [29] = experiment: Antifungal activity against Candida albicans SC3514 assessed as low level of ergosta-7,22-dien-3-ol at 2 ug/ml incubated for 24 hrs in presence of NADPH by GC-MS analysis; format: functional, organism-based; details: dose 2.0 µg/ml
Cryptococcus neoformans [30] = experiment: Inhibition of Cryptococcus neoformans H99 delta5,6-desaturase assessed as upregulation of ERG1 gene expression at 2 ug/ml incubated for 24 hrs by RT-PCR analysis; details: dose 2.0 µg/ml
Cryptococcus neoformans [31] = experiment: Inhibition of Cryptococcus neoformans H99 delta5,6-desaturase assessed as upregulation of ERG2 gene expression at 2 ug/ml incubated for 24 hrs by RT-PCR analysis; details: dose 2.0 µg/ml
Cryptococcus neoformans [32] = experiment: Inhibition of Cryptococcus neoformans H99 delta5,6-desaturase assessed as upregulation of ERG3 gene expression at 2 ug/ml incubated for 24 hrs by RT-PCR analysis; details: dose 2.0 µg/ml
Cryptococcus neoformans [33] = experiment: Inhibition of Cryptococcus neoformans H99 delta5,6-desaturase assessed as upregulation of ERG4 gene expression at 2 ug/ml incubated for 24 hrs by RT-PCR analysis; details: dose 2.0 µg/ml
Cryptococcus neoformans [34] = experiment: Inhibition of Cryptococcus neoformans H99 delta5,6-desaturase assessed as upregulation of ERG5 gene expression at 2 ug/ml incubated for 24 hrs by RT-PCR analysis; details: dose 2.0 µg/ml
Cryptococcus neoformans [35] = experiment: Inhibition of Cryptococcus neoformans H99 delta5,6-desaturase assessed as upregulation of ERG11 gene expression at 2 ug/ml incubated for 24 hrs by RT-PCR analysis; details: dose 2.0 µg/ml
Cryptococcus neoformans [36] = experiment: Inhibition of Cryptococcus neoformans H99 delta5,6-desaturase assessed as upregulation of ERG24 gene expression at 2 ug/ml incubated for 24 hrs by RT-PCR analysis; details: dose 2.0 µg/ml
Cryptococcus neoformans [37] = experiment: Inhibition of Cryptococcus neoformans H99 delta5,6-desaturase assessed as upregulation of ERG3 under stress condition at 0.25 to 1 ug/ml incubated for 24 hrs by RT-PCR analysis; details: dose 0.25-1 µg/ml, DDE = dose-dependent effect
Cryptococcus neoformans [38] = experiment: Inhibition of Cryptococcus neoformans H99 delta5,6-desaturase assessed as upregulation of ERG11 at 0.25 to 1 ug/ml incubated for 24 hrs by RT-PCR analysis; details: dose 0.25-1 µg/ml, DDE = dose-dependent effect
Candida albicans [39] = experiment: Upregulation of ERG3 in Candida albicans SC3514 at 0.5 ug/ml incubated for 24 hrs by RT-PCR analysis; format: functional; details: dose 0.5 µg/ml
Candida albicans [40] = experiment: Upregulation of ERG11 in Candida albicans SC3514 at 0.5 ug/ml incubated for 24 hrs by RT-PCR analysis; format: functional; details: dose 0.5 µg/ml
Cryptococcus neoformans [41] = experiment: Inhibition of biofilm formation in Cryptococcus neoformans H99 at 0.5 to 8 ug/ml incubated for 24 hrs by XTT reduction assay; format: functional, organism-based; details: dose 0.5-8 µg/ml, DDE = dose-dependent effect
[42] = microbe, parasite or virus in culture; format: functional; details: Cryptococcus; time 72 hrs
Description: Anti-cryptococcal activity against Cryptococcus assessed as inhibition of fungal growth incubated for 72 hrs by microdilution method

Cryptococcus = experiment: Fungicidal activity against Cryptococcus assessed as ratio of MFC to MIC; format: functional

Cl.Clc1ccc(C2CCC(NCCC3CCOCC3)c3ccsc32)cc1Cl (stereo not given)
Activity (Cryptococcus neoformans [1]): 100% | Activity (Cryptococcus neoformans [2]): Active | MFC (Cryptococcus neoformans [3]): 8 µg/mL | inhibition at 2 µg/mL (Cryptococcus neoformans [4]): 50% | IC50 ([Candida] auris [5]): 8 µg/mL | IC50 (Cryptococcus neoformans [6]): 0.5 µg/mL | IC50 (Candida albicans [7]): 32 µg/mL | IC50 (Candida albicans [8]): 32 µg/mL | IC50 (Candida albicans [9]): 32 µg/mL | IC50 (Candida tropicalis): 32 µg/mL | IC50 (Nakaseomyces glabratus [10]): 32 µg/mL | IC50 (Nakaseomyces glabratus [11]): 8 µg/mL | IC50 (Pichia kudriavzevii): 8 µg/mL | IC50 ([Candida] auris [12]): 16 µg/mL | IC50 ([Candida] auris [13]): 8 µg/mL | IC50 (Aspergillus fumigatus [14]): 32 µg/mL | IC50 (Aspergillus fumigatus [15]): 32 µg/mL | half-life [16]: 40.1 min | CLH [17]: 136 µL/min/mg | IC50 [18]: 20.2 µM | MST [19]: 14 days | Activity (Cryptococcus neoformans [20]): Active | Activity (Cryptococcus neoformans [21]): Dde | Activity (Cryptococcus neoformans [22]): Active | Activity (Cryptococcus neoformans [23]): Active | Activity (Cryptococcus neoformans [24]): Active | Activity (Cryptococcus neoformans [25]): Dde | Activity (Cryptococcus neoformans [26]): Active | Activity (Cryptococcus neoformans [27]): Active | Activity (Candida albicans [28]): Active | Activity (Candida albicans [29]): Active | Activity (Cryptococcus neoformans [30]): Active | Activity (Cryptococcus neoformans [31]): Active | Activity (Cryptococcus neoformans [32]): Active | Activity (Cryptococcus neoformans [33]): Active | Activity (Cryptococcus neoformans [34]): Active | Activity (Cryptococcus neoformans [35]): Active | Activity (Cryptococcus neoformans [36]): Active | Activity (Cryptococcus neoformans [37]): Dde | Activity (Cryptococcus neoformans [38]): Dde | Activity (Candida albicans [39]): Active | Activity (Candida albicans [40]): Active | inhibition (Cryptococcus neoformans [41]): Dde | MIC50 [42]: 0.62 µg/mL | Ratio (Cryptococcus): 7.47

— ChEMBL document CHEMBL5154781, “Discovery of Novel Sertraline Derivatives as Potent Anti-Cryptococcus Agents” (J Med Chem, 2022)
